Marks after values point to notes of the source that are not given here.
Columns and labels:
[1] = system: Imiquimod (IMQ) induced psoriasis; experiment: Imiquimod (IMQ) induced psoriasis model; type: in vivo, BALB/C mice
[2] = system: Human endothelial cells (EA.hy 926); experiment: Tube formation in endothelial cells; type: cell-based; parameters: endothelial morphogenesis on matrigel: dose or concentration left out as unconfirmed; conditions: Ea.hy.926, 8 hours
Description: Cell lines: Human endothelial cells (EA.Hy 926); test item: IS 181; treatment regimen; multiple additions (2)—48 hours; concentration range: 100 6 g/ml to 5000 6 g/ml (Duplicate wells); sera condition: medium containing 1% FBS. Non-cytotoxic concentrations of IS 181 were determined using MTT assay. EA.hy926 cells were plated on ECMatrix solution. Cells were treated with IS 181 for 8 hours. Endothelial tubes were visualized under inverted light microscope at 40× magnification and images were captured. End point: visual pattern recognition and scoring of photomicrographs (FIGS. 11A-11G) based on Table-11 below: […]

[3] = system: IFN-γ; experiment: TNF-α stimulated IFN-γ secretion in HaCaT; type: cell-based, Human; parameters: IFN-γ Conc (μ/ml): unit not given here; conditions: for IFN-γ % decrease with respect to TNF-α / IFN-γ Conc (μ/ml): HaCaT + TNF-α, 24 h
Description: Effect on pro-inflammatory cytokines against TNF-α/LPS+PMA stimulation: TNF-α; IFN-γ; TARC; TSLP; IL-6; IL-8: Cell lines: Human keratinocytes (HaCaT); test item (TI); IS181; experimental steps: pre-treatment of cells with TI for 2 hours; stimulation with TNF-α: 20 ng/ml; stimulation with LPS+PMA-10 μg/ml LPS+40 ng/ml PMA; supernatant collection for cytokine analysis after 24 hours; concentration range: 0.1 μg/ml-100 μg/ml (duplicate wells); cytokines: TNF-α; IFN-γ; TARC; TSLP; IL-6; IL-8. Method of estimating cytokines: ELISA; positive control: dexamethasone.
Cell line: HaCaT (Human Keratinocytes); TI Treatment regimen: Pretreatment for 2 h; TI Concentration range: 0.1 μg/ml-100 μg/ml (duplicate wells); TNF-α stimulation: 20 ng/ml; LPS+PMA stimulation: 10 μg/ml LPS+40 ng/ml PMA; Time point for supernatants collection: 24 h; Method of estimation: ELISA; Positive control: Dexamethasone

[4] = Cell viability of splenocytes (MTT); type: cell-based, mouse; conditions: mouse, mouse splenocytes, splenocytes, 24 h
Description: (§1) Cell lines: mouse splenocytes; test item: IS181; treatment regimen: single addition—24 hours; concentration range: 10 μg/ml-5000 μg/ml.A) Identification of non-cytotoxic concentrations: splenocytes were treated with IS181 for 24 hours. Effect on cell viability was assessed by MTT assay. Concentrations leading to >75% cell viability were selected for IL-17 assay. B) IL-17 assay: splenocytes were treated with IS181 in presence of ConA stimulation for 24 hours. Supernatants were collected and stored at −20° C. till analysed. Levels of IL-17 were analysed in supernatants by ELISA. Percent inhibition of IL-17 secretion was calculated with reference to ConA treated levels. Positive control: curcumin.

[5] = system: mouse splenocytes; experiment: Cell viability of splenocytes (MTT); type: cell-based; conditions: splenocytes
Description: as §1

[6] = system: TNF-α; experiment: LPS stimulated TNF-α secretion in RAW264.7; type: cell-based, Mouse; conditions: for TNF-α % decrease with respect to LPS / TNF-α Conc (pg/ml): RAW264.7 + LPS, 24 h
Description: Effect on pro-inflammatory cytokines against LPS stimulation: TNF-α; IL-6; IL-1-β: Cell lines: Murine macrophage cell line (RAW264.7); test item: IS181; experimental steps: pretreatment of cells with TI for 2 hours; stimulation with LPS (100 ng/ml) for 24 hours; supernatant collection for cytokine analysis; concentration range: o.1 μg/ml-500 μg/ml (duplicate wells); Cytokines: TNF-α; IL-6; IL-1-β; Method of estimating cytokines: ELISA; positive control: dexamethasone.
Cell line: RAW264.7 (Mouse macrophages); TI treatment regimen: Pretreatment for 2 h; TI Concentration range: 0.1 μg/ml-500 μg/ml (duplicate wells); LPS stimulation: 100 ng/ml; Time point for supernatants collection: 24 h; Method of estimation: ELISA; Positive control: Dexamethasone

[7] = target: MAP2K1 (MEK1) (Homo sapiens, UniProt Q02750); experiment: Biochemical kinase assay MAP2K1
Sequence of MAP2K1 (MEK1) (Q02750 whole entry): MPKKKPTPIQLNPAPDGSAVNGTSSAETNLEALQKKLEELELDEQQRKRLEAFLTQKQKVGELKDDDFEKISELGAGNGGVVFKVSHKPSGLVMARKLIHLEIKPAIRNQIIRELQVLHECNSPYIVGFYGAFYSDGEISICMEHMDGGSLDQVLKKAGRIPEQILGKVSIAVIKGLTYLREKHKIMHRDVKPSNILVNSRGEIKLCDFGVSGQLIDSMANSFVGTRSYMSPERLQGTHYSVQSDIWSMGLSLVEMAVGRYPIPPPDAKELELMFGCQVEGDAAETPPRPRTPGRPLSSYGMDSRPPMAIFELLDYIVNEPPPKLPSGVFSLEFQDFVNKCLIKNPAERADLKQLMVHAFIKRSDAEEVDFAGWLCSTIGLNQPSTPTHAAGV
Description: Test system: cell free assays; test items: IS181; concentrations tested: 1 ng/ml-5000 μg/ml; Kinases: a) Cell free assays: EGFR (ErbB1); FLT1 (VEGFR1); JAK1; JAK3 MAP2K1 (MEK1); PDGFRA (PDGFR alpha); PRKCA (PKC alpha); b) cell based assay: JAK-STAT.

Substance: H-WVQRVVEKFLK-OH [IS181, H-Trp-Val-Gln-Arg-Val-Val-Glu-Lys-Phe-Leu-Lys-OH]
- ear thickness (life phase) ([1]; 1.2 mg/kg i.m. and i.p): mild reduction in ear thickness
- spleen weight ([1]; i.p): mild reduction in spleen weight
- endothelial morphogenesis on matrigel [2]: Complete inhibition
- endothelial tube formation ([2]; 1 6 g/ml to 1000 6 g/m/1): block endothelial tube formation
- IFN-γ secretion downregulated as compared to TNF-α stimulated cells ([3]; 0.1 μg/ml-100): 27.1%-40.1%
- IFN-γ inhibition ([3]; HaCaT): good extent of IFN-γ and TARC inhibition
- IFN-γ % decrease with respect to TNF-α ([3]; 0.1 μg/ml): 35.6%
- IFN-γ Conc (μ/ml) ([3]; 0.1 μg/ml): 30.7***
- IFN-γ % decrease with respect to TNF-α ([3]; 1 μg/ml): 36.7%
- IFN-γ Conc (μ/ml) ([3]; 1 μg/ml): 30.1***
- IFN-γ % decrease with respect to TNF-α ([3]; 5 μg/ml): 40.1%
- IFN-γ Conc (μ/ml) ([3]; 5 μg/ml): 28.6***
- IFN-γ % decrease with respect to TNF-α ([3]; 10 μg/ml): 27.1%
- IFN-γ Conc (μ/ml) ([3]; 10 μg/ml): 34.7***
- IFN-γ % decrease with respect to TNF-α ([3]; 100 μg/ml): 32.0%
- IFN-γ Conc (μ/ml) ([3]; 100 μg/ml): 32.4***
- viability at 24 h, 10 μg/ml ([4]; 10 μg/ml): 97%
- viability at 24 h, 50 μg/ml ([4]; 50 μg/ml): 110%
- viability at 24 h, 100 μg/ml ([4]; 100 μg/ml): 110%
- viability at 24 h, 500 μg/ml ([4]; 500 μg/ml): 94.6%
- viability at 24 h, 1 mg/ml ([4]; 1 mg/ml): 79.4%
- viability at 24 h, 2 mg/ml ([4]; 2 mg/ml): 51.6%
- viability at 24 h, 5 mg/ml ([4]; 5 mg/ml): 25.6%
- cytotoxicity [5]: < 25%
- cytotoxicity ([5]; 2 mg/ml): 48.4%
- cytotoxicity ([5]; 5 mg/ml): 74.4%
- TNF-α inhibition as compared to LPS stimulated levels ([6]; RAW264.7): good extent of TNF-α and IL-6 inhibition
- TNF-α % decrease with respect to LPS ([6]; 0.1 μ/ml): 58.8%
- TNF-α Conc (pg/ml) ([6]; 0.1 μ/ml): 1190.3*** pg/ml
- TNF-α % decrease with respect to LPS ([6]; 1 μ/ml): 32.1%
- TNF-α Conc (pg/ml) ([6]; 1 μ/ml): 1960.5*** pg/ml
- TNF-α % decrease with respect to LPS ([6]; 5 μ/ml): 34.0%
- TNF-α Conc (pg/ml) ([6]; 5 μ/ml): 1906.1*** pg/ml
- TNF-α % decrease with respect to LPS ([6]; 10 μ/ml): 60.2%
- TNF-α Conc (pg/ml) ([6]; 10 μ/ml): 1149.0*** pg/ml
- TNF-α % decrease with respect to LPS ([6]; 100 μ/ml): 17.6%
- TNF-α Conc (pg/ml) ([6]; 100 μ/ml): 2379.2* pg/ml
- TNF-α % decrease with respect to LPS ([6]; 500 μ/ml): 38.4%
- TNF-α Conc (pg/ml) ([6]; 500 μ/ml): 1779.9*** pg/ml
- TNF-α secretion downregulated vs LPS stimulated levels ([6]; RAW264.7, 0.1 μg/ml-500 μg/ml): 17.6%-60.2%
- inhibition of MAP2K1 (MEK1) ([7]; 10 μg/ml-5000 μg/ml): 23%-49%
- inhibition at 50 µg/mL ([7]; cell free, 50 μg/ml): 49%
- inhibition at 100 µg/mL ([7]; cell free, 100 μg/ml): 26%
- inhibition at 250 µg/mL ([7]; cell free, 250 μg/ml): 30%
- inhibition at 500 µg/mL ([7]; cell free, 500 μg/ml): 23%
- inhibition at 1000 µg/mL ([7]; cell free, 1000 μg/ml): 13%
- inhibition at 2000 µg/mL ([7]; cell free, 2000 μg/ml): -16%
- inhibition at 5000 µg/mL ([7]; cell free, 5000 μg/ml): -81%

Reference: US10538561B2, “Peptide for treating inflammatory diseases” (priority 2015, dated 2020)
